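Compound exposure: 48 hours, 5 concentrations, 96-well plates. TGI: total growth inhibition.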
How the values were obtained:
Assay in all cases: NCI-60 cell line screen, 48 h
MDA-MB-231 breast = test system: MDA-MB-231 breast
CCRF-CEM leukemia = test system: CCRF-CEM leukemia
A498 renal = test system: A498 renal
A549 NSCLC = test system: A549 NSCLC
UACC-62 melanoma = test system: UACC-62 melanoma
OVCAR-5 ovarian = test system: OVCAR-5 ovarian
UACC-257 melanoma = test system: UACC-257 melanoma
NCI-H460 lung = test system: NCI-H460 lung
CAKI-1 renal = test system: CAKI-1 renal
HS 578T breast = test system: HS 578T breast
M14 melanoma = test system: M14 melanoma
HCT-15 colon = test system: HCT-15 colon
SW-620 colon = test system: SW-620 colon
HCT-116 colon = test system: HCT-116 colon
SF-295 CNS = test system: SF-295 CNS
HOP-62 NSCLC = test system: HOP-62 NSCLC
SNB-19 CNS = test system: SNB-19 CNS
EKVX NSCLC = test system: EKVX NSCLC
NCI/ADR-RES ovarian = test system: NCI/ADR-RES ovarian
NCI-H226 lung = test system: NCI-H226 lung
DU-145 prostate = test system: DU-145 prostate
NCI-H23 lung = test system: NCI-H23 lung
HL-60(TB) leukemia = test system: HL-60(TB) leukemia
RPMI-8226 leukemia = test system: RPMI-8226 leukemia
UO-31 renal = test system: UO-31 renal
LOX IMVI melanoma = test system: LOX IMVI melanoma
IGROV1 ovarian = test system: IGROV1 ovarian
SR leukemia = test system: SR leukemia
T-47D breast = test system: T-47D breast
ACHN renal = test system: ACHN renal
K-562 leukemia = test system: K-562 leukemia
SF-268 CNS = test system: SF-268 CNS
SK-OV-3 ovarian = test system: SK-OV-3 ovarian
MDA-N = test system: MDA-N
COLO 205 colon = test system: COLO 205 colon
SF-539 CNS = test system: SF-539 CNS
U251 CNS = test system: U251 CNS
SK-MEL-2 melanoma = test system: SK-MEL-2 melanoma
SN12C renal = test system: SN12C renal
RXF 393 renal = test system: RXF 393 renal
PC-3 prostate = test system: PC-3 prostate
NCI-H522 lung = test system: NCI-H522 lung
SK-MEL-5 melanoma = test system: SK-MEL-5 melanoma
HCC-2998 colon = test system: HCC-2998 colon
MCF7 breast = test system: MCF7 breast
OVCAR-8 ovarian = test system: OVCAR-8 ovarian
786-0 renal = test system: 786-0 renal
MDA-MB-435 = test system: MDA-MB-435
SK-MEL-28 melanoma = test system: SK-MEL-28 melanoma
MOLT-4 leukemia = test system: MOLT-4 leukemia
TK-10 renal = test system: TK-10 renal
BT-549 breast = test system: BT-549 breast
OVCAR-3 ovarian = test system: OVCAR-3 ovarian
HOP-92 NSCLC = test system: HOP-92 NSCLC
HT29 colon = test system: HT29 colon
MALME-3M melanoma = test system: MALME-3M melanoma
KM12 colon = test system: KM12 colon
SNB-75 CNS = test system: SNB-75 CNS
OVCAR-4 ovarian = test system: OVCAR-4 ovarian

## CC1(C)OC2C(CO)OC(n3cnc(N)nc3=O)C2O1 (stereo unspecified)
MDA-MB-231 breast
  TGI: > 100 µM
CCRF-CEM leukemia
  TGI: > 100 µM
A498 renal
  TGI: > 100 µM
A549 NSCLC
  TGI: > 100 µM
UACC-62 melanoma
  TGI: > 100 µM
OVCAR-5 ovarian
  TGI: > 100 µM
UACC-257 melanoma
  TGI: > 100 µM
NCI-H460 lung
  TGI: > 100 µM
CAKI-1 renal
  TGI: > 100 µM
HS 578T breast
  TGI: > 100 µM
M14 melanoma
  TGI: > 100 µM
HCT-15 colon
  TGI: > 100 µM
SW-620 colon
  TGI: > 100 µM
HCT-116 colon
  TGI: > 100 µM
SF-295 CNS
  TGI: > 100 µM
HOP-62 NSCLC
  TGI: > 100 µM
SNB-19 CNS
  TGI: > 100 µM
EKVX NSCLC
  TGI: > 100 µM
NCI/ADR-RES ovarian
  TGI: > 100 µM
NCI-H226 lung
  TGI: > 100 µM
DU-145 prostate
  TGI: > 100 µM
NCI-H23 lung
  TGI: > 100 µM
HL-60(TB) leukemia
  TGI: > 100 µM
RPMI-8226 leukemia
  TGI: > 100 µM
UO-31 renal
  TGI: > 100 µM
LOX IMVI melanoma
  TGI: > 100 µM
IGROV1 ovarian
  TGI: > 100 µM
SR leukemia
  TGI: > 100 µM
T-47D breast
  TGI: > 100 µM
ACHN renal
  TGI: > 100 µM
K-562 leukemia
  TGI: > 100 µM
SF-268 CNS
  TGI: > 100 µM
SK-OV-3 ovarian
  TGI: > 100 µM
MDA-N
  TGI: > 100 µM
COLO 205 colon
  TGI: > 100 µM
SF-539 CNS
  TGI: > 100 µM
U251 CNS
  TGI: > 100 µM
SK-MEL-2 melanoma
  TGI: > 100 µM
SN12C renal
  TGI: > 100 µM
RXF 393 renal
  TGI: > 100 µM
PC-3 prostate
  TGI: > 100 µM
NCI-H522 lung
  TGI: > 100 µM
SK-MEL-5 melanoma
  TGI: > 100 µM
HCC-2998 colon
  TGI: > 100 µM
MCF7 breast
  TGI: > 100 µM
OVCAR-8 ovarian
  TGI: > 100 µM
786-0 renal
  TGI: > 100 µM
MDA-MB-435
  TGI: > 100 µM
SK-MEL-28 melanoma
  TGI: > 100 µM
MOLT-4 leukemia
  TGI: > 100 µM
TK-10 renal
  TGI: > 100 µM
BT-549 breast
  TGI: > 100 µM
OVCAR-3 ovarian
  TGI: > 100 µM
HOP-92 NSCLC
  TGI: > 100 µM

## N#CC1CNC(N)NC1N (stereo unspecified)
MDA-MB-231 breast
  TGI: > 100 µM
CCRF-CEM leukemia
  TGI: 34.6 µM
A498 renal
  TGI: > 100 µM
HT29 colon
  TGI: > 100 µM
A549 NSCLC
  TGI: > 100 µM
UACC-62 melanoma
  TGI: > 100 µM
OVCAR-5 ovarian
  TGI: > 100 µM
UACC-257 melanoma
  TGI: > 100 µM
NCI-H460 lung
  TGI: > 100 µM
CAKI-1 renal
  TGI: > 100 µM
HS 578T breast
  TGI: > 100 µM
M14 melanoma
  TGI: > 100 µM
HCT-15 colon
  TGI: > 100 µM
MALME-3M melanoma
  TGI: > 100 µM
SW-620 colon
  TGI: > 100 µM
HCT-116 colon
  TGI: > 100 µM
SF-295 CNS
  TGI: > 100 µM
HOP-62 NSCLC
  TGI: > 100 µM
SNB-19 CNS
  TGI: > 100 µM
KM12 colon
  TGI: > 100 µM
EKVX NSCLC
  TGI: > 100 µM
NCI/ADR-RES ovarian
  TGI: > 100 µM
NCI-H226 lung
  TGI: > 100 µM
DU-145 prostate
  TGI: > 100 µM
NCI-H23 lung
  TGI: > 100 µM
HL-60(TB) leukemia
  TGI: > 100 µM
RPMI-8226 leukemia
  TGI: > 100 µM
LOX IMVI melanoma
  TGI: > 100 µM
IGROV1 ovarian
  TGI: > 100 µM
SR leukemia
  TGI: > 100 µM
T-47D breast
  TGI: > 100 µM
ACHN renal
  TGI: > 100 µM
K-562 leukemia
  TGI: > 100 µM
SF-268 CNS
  TGI: > 100 µM
SK-OV-3 ovarian
  TGI: > 100 µM
MDA-N
  TGI: > 100 µM
COLO 205 colon
  TGI: > 100 µM
SF-539 CNS
  TGI: > 100 µM
U251 CNS
  TGI: > 100 µM
SK-MEL-2 melanoma
  TGI: > 100 µM
SN12C renal
  TGI: > 100 µM
RXF 393 renal
  TGI: > 100 µM
PC-3 prostate
  TGI: > 100 µM
NCI-H522 lung
  TGI: > 100 µM
SK-MEL-5 melanoma
  TGI: > 100 µM
MCF7 breast
  TGI: > 100 µM
SNB-75 CNS
  TGI: > 100 µM
OVCAR-8 ovarian
  TGI: > 100 µM
786-0 renal
  TGI: > 100 µM
MDA-MB-435
  TGI: > 100 µM
SK-MEL-28 melanoma
  TGI: > 100 µM
TK-10 renal
  TGI: > 100 µM
OVCAR-4 ovarian
  TGI: > 100 µM
BT-549 breast
  TGI: > 100 µM
OVCAR-3 ovarian
  TGI: > 100 µM
HOP-92 NSCLC
  TGI: > 100 µM

## CCOC(=O)C1(O)C(=O)C2=C3C(=O)OC(C4OC(=O)c5c(c(O)c(O)c(O)c5C31)-c1c(cc(O)c(O)c1O)C(=O)OC1COC(=O)c3cc(O)c(O)c(O)c3-c3c(cc(O)c(O)c3O)C(=O)OC14)[C@@H]2O (stereo partly specified)
MDA-MB-231 breast
  TGI: 36.1 µM
CCRF-CEM leukemia
  TGI: 52.6 µM
A498 renal
  TGI: > 100 µM
HT29 colon
  TGI: 51.3 µM
A549 NSCLC
  TGI: 44.4 µM
UACC-62 melanoma
  TGI: 43.1 µM
OVCAR-5 ovarian
  TGI: 35.3 µM
UACC-257 melanoma
  TGI: > 100 µM
NCI-H460 lung
  TGI: > 100 µM
CAKI-1 renal
  TGI: 25.9 µM
HS 578T breast
  TGI: > 100 µM
M14 melanoma
  TGI: 67.6 µM
HCT-15 colon
  TGI: 40.8 µM
MALME-3M melanoma
  TGI: 95.8 µM
SW-620 colon
  TGI: 54.5 µM
HCT-116 colon
  TGI: 30.8 µM
SF-295 CNS
  TGI: 43 µM
HOP-62 NSCLC
  TGI: > 100 µM
SNB-19 CNS
  TGI: > 100 µM
KM12 colon
  TGI: > 100 µM
EKVX NSCLC
  TGI: 38.4 µM
NCI/ADR-RES ovarian
  TGI: > 100 µM
NCI-H226 lung
  TGI: 48.6 µM
DU-145 prostate
  TGI: > 100 µM
NCI-H23 lung
  TGI: 39.5 µM
HL-60(TB) leukemia
  TGI: 72.7 µM
RPMI-8226 leukemia
  TGI: 85 µM
UO-31 renal
  TGI: > 100 µM
LOX IMVI melanoma
  TGI: 39.3 µM
IGROV1 ovarian
  TGI: 79.5 µM
SR leukemia
  TGI: > 100 µM
T-47D breast
  TGI: > 100 µM
ACHN renal
  TGI: 35.2 µM
K-562 leukemia
  TGI: 56.9 µM
SF-268 CNS
  TGI: 52.9 µM
SK-OV-3 ovarian
  TGI: > 100 µM
MDA-N
  TGI: 37.8 µM
COLO 205 colon
  TGI: 35.4 µM
U251 CNS
  TGI: 44.2 µM
SK-MEL-2 melanoma
  TGI: 94.7 µM
SN12C renal
  TGI: 35.4 µM
RXF 393 renal
  TGI: 36.8 µM
PC-3 prostate
  TGI: > 100 µM
NCI-H522 lung
  TGI: 53.6 µM
SK-MEL-5 melanoma
  TGI: 27.8 µM
HCC-2998 colon
  TGI: 95.4 µM
MCF7 breast
  TGI: 40.1 µM
OVCAR-8 ovarian
  TGI: 39.5 µM
786-0 renal
  TGI: 39.4 µM
MDA-MB-435
  TGI: 33.4 µM
SK-MEL-28 melanoma
  TGI: > 100 µM
MOLT-4 leukemia
  TGI: 57.2 µM
OVCAR-4 ovarian
  TGI: 45.1 µM
BT-549 breast
  TGI: 61.5 µM
OVCAR-3 ovarian
  TGI: 85.4 µM
HOP-92 NSCLC
  TGI: 86.5 µM

Source: PubChem BioAssay (NCI)
